This is an account of results in patent US4282363A, “1-Nitro-2-(2-alkynylamino)-2-[(2-pyridylmethylthio)-ethylamino]ethylene derivatives” (Bristol-Myers Company, priority 1980, dated 1981).

Each structure is given as a SMILES string. Like-named read-outs stand apart in the source and are kept apart here.

Series [1] addresses T1, histamine H2 -receptor (Cavia porcellus, UniProt P47747).
T1 construct: The spontaneously beating right atrium was dissected free from other tissues; from tissue; host or cells: isolated, spontaneously beating right atrium of male Hartley guinea pigs
Briefly: Histamine H2-receptor antagonism, isolated guinea pig right atria assay (displacement of histamine concentration-response curve of atrial rate). Particulars: for Histamine ED50 With 95% Confidence Limits (after test compound): histamine ED50 in presence of test compound 3 × 10^-5 M, 30 minute incubation; for Concentration-Response Curve Displacement Factor: test compound 3 × 10^-5 M, displacement of histamine curve to the right. Also on record: species or system guinea pig (male Hartley). How it is done:
Subsequent investigations by Hughes and Coret, Proc. Soc. […] Black et al., Agents and Actions, 3, 133 (1973) and Brimblecombe et al., Fed. […] The present comparative studies were carried out using a modification of the procedure reported by Reinhardt et al., Agents and Actions, 4, 217 (1974).
Male Hartley strain guinea pigs (350-450 gm.) were sacrificed by a blow on the head. The heart was excised and placed in a Petri dish of oxygenated (95% O2, 5% CO2) modified Krebs solution (g./liter: NaCl 6.6, KCl 0.35, MgSO4.7H2 O 0.295, KH2 PO4 0.162, CaCl2 0.238, NaHCO3 2.1 and dextrose 2.09). The spontaneously beating right atrium was dissected free from other tissues and a silk thread (4-0) attached to each end. The atrium was suspended in a 20 ml. muscle chamber containing oxygenated modified Krebs solution maintained at 32° C. Atrial contractions were recorded isometrically be means of a Grass FT 0.03 force displacement transducer and recordings of contractile force and rate were made with Beckman RP Dynograph.
A resting tension of 1 g. was applied to the atrium and it was allowed to equilibrate for 1 hour.
Concentration-response curve displacement factors were calculated as follows: [formula] […] [formula]

Series [2] concerns gastric secretion. Particulars: animals; cited from earlier work.
Series [3] concerns gastric secretion. Particulars: man, cited from earlier work.
In series [4] the test system is peptic ulcer disease. Particulars: cited from earlier work.
Series [5] has as its system histamine H2 -receptors. Particulars: isolated right atria, cited from earlier work.
Series [6] has as its system H2 -receptors. Particulars: compared with other H2 antagonists; cited from earlier work.
The conditions of series [7]: clinical use; cited from earlier work.
The conditions of series [8]: 200-300 mg. tablets, multi daily doses; cited from earlier work.

T1 sequence (P47747 whole entry): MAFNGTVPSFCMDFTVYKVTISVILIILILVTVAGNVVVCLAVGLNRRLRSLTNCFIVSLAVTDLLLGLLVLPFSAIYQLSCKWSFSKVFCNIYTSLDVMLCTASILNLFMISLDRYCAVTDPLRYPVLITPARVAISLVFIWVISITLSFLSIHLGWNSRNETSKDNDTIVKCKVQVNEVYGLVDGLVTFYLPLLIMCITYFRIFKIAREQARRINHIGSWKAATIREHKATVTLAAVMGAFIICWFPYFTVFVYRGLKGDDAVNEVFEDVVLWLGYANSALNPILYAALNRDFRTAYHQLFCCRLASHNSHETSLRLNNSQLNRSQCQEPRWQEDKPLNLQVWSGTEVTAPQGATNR

For the compound `C#CCNC(=NCCSCc1ncccc1Cl)NC#N` [BL-6083, N-Cyano-N'-(2-propyn-1-yl)-N"-{2-[(3-chloro-2-pyridyl)-methylthio]ethyl}guanidine], in series [1], the “Histamine ED50 With 95% Confidence Limits (after test compound)” value was 57.92 µg/mL and the “Concentration-Response Curve Displacement Factor” value stood at 206.86. Besides, in series [1] (ratio of displacement factors, cimetidine = 1.0, times more potent/active than cimetidine), the “Activity Ratio Relative to Cimetidine” value is on record as 8.19.

Regarding `CNC(=S)NCCCCc1c[nH]cn1` [Burimamide], the “inhibition of gastric secretion” value in series [2] and in series [3] was “inhibits gastric secretion” in each case. Also, the “clinical effectiveness as H2 -receptor antagonist” value in series [4] (in vivo) is “first clinically effective H2 -receptor antagonist”. Besides, the “antagonism of H2-receptors” value in series [5] is on record as “competitive antagonist”.

On to `CNC(=NC#N)NCCSCc1[nH]cnc1C` [Cimetidine], for which, in series [1], the “Histamine ED50 With 95% Confidence Limits (after test compound)” value turned out to be 4.80 µg/mL. Besides, the “H2 antagonist potency, comparison in words” value in series [6] is “as effective an H2 antagonist as metiamide”. Besides, in series [7], the “toxicity (agranulocytosis)” value was “without producing agranulocytosis”. In addition, the “therapeutic effectiveness in peptic ulcer disease” value in series [4] (clinical evaluation) is “effective therapeutic agent in the treatment of peptic ulcer disease”. Moreover, in series [8], the half-life result was “relatively short”.

Regarding `NCCc1c[nH]cn1` [Histamine, histamine], the “histamine concentration giving maximal response” value in series [1] (final molar bath concentration, increase in atrial rate) was 30 µM. For the same compound, the “effect on contractile rate” value in series [5] (agonist) is listed as “concentration-related increases in the contractile rate”.

With `C#CCNC(=C[N+](=O)[O-])NCCSCc1ncccc1Cl` [BL-6075, 1-Nitro-2-(2-propynlamino)-2-{2-[(3-chloro-2-pyridyl)-methylthio]ethylamino}ethylene], in series [1], the “Histamine ED50 With 95% Confidence Limits (after test compound)” value came to 20.97 µg/mL and the “Concentration-Response Curve Displacement Factor” value turned out to be 52.77.

In the case of `CNC(=S)NCCSCc1[nH]cnc1C` [Metiamide], in series [3] (oral), the oral activity result was “orally active in man”. The “H2 antagonist potency, comparison in words” value in series [6] is reported as “more potent than burimamide”. Moreover, the “toxicity (agranulocytosis)” value in series [7] is “toxicity (agranulocytosis)”.
